# In ChEMBL document CHEMBL2413072, “Synthesis and in vitro anticancer studies of novel C-2 arylidene congeners of lantadenes” (2013):
# Assays:
# Type in all cases: functional
# COLO 205 [1] = assay: Growth inhibition of human COLO205 cells assessed as cell growth at 10^-8 M by sulforhodamine B assay; conditions: read-out: Activity
# UACC-257 [2] = assay: Growth inhibition of human UACC257 cells assessed as cell growth at 10^-6 M by sulforhodamine B assay; conditions: read-out: Activity
# CCRF-CEM [3] = assay: Growth inhibition of human CCRF-CEM cells assessed as cell growth at 10^-4 M by sulforhodamine B assay; conditions: read-out: Activity
# K562 = assay: Growth inhibition of human K562 cells by sulforhodamine B assay
# A498 [4] = assay: Growth inhibition of human A498 cells assessed as cell growth at 10^-7 M by sulforhodamine B assay; conditions: read-out: Activity
# BT-549 = assay: Growth inhibition of human BT549 cells assessed as cell growth at 10^-4 M by sulforhodamine B assay; conditions: read-out: Activity
# SF-268 = assay: Growth inhibition of human SF268 cells assessed as cell growth at 10^-8 M by sulforhodamine B assay; conditions: read-out: Activity
# TK-10 = assay: Growth inhibition of human TK10 cells assessed as cell growth at 10^-6 M by sulforhodamine B assay; conditions: read-out: Activity
# SK-OV-3 [5] = assay: Growth inhibition of human SKOV3 cells by sulforhodamine B assay
# T47D = assay: Growth inhibition of human T47D cells assessed as cell growth at 10^-7 M by sulforhodamine B assay; conditions: read-out: Activity
# A549 = assay: Growth inhibition of human A549/ATCC cells assessed as cell growth at 10^-8 M by sulforhodamine B assay; conditions: read-out: Activity
# COLO 205 [6] = assay: Growth inhibition of human COLO205 cells assessed as cell growth at 10^-7 M by sulforhodamine B assay; conditions: read-out: Activity
# OVCAR-5 = assay: Growth inhibition of human OVCAR5 cells assessed as cell growth at 10^-6 M by sulforhodamine B assay; conditions: read-out: Activity
# SK-OV-3 [7] = assay: Growth inhibition of human SKOV3 cells assessed as cell growth at 10^-4 M by sulforhodamine B assay; conditions: read-out: Activity
# HCT-15 [8] = assay: Growth inhibition of human HCT15 cells assessed as cell growth at 10^-7 M by sulforhodamine B assay; conditions: read-out: Activity
# MCF7 = assay: Growth inhibition of human MCF7 cells assessed as cell growth at 10^-6 M by sulforhodamine B assay; conditions: read-out: Activity
# CCRF-CEM [9] = assay: Growth inhibition of human CCRF-CEM cells by sulforhodamine B assay
# NCI-H23 = assay: Growth inhibition of human NCI-H23 cells assessed as cell growth at 10^-7 M by sulforhodamine B assay; conditions: read-out: Activity
# UACC-257 [10] = assay: Growth inhibition of human UACC257 cells assessed as cell growth at 10^-4 M by sulforhodamine B assay; conditions: read-out: Activity
# SF-295 = assay: Growth inhibition of human SF295 cells assessed as cell growth at 10^-6 M by sulforhodamine B assay; conditions: read-out: Activity
# HCT-116 [11] = assay: Growth inhibition of human HCT116 cells assessed as cell growth at 10^-4 M by sulforhodamine B assay; conditions: read-out: Activity
# HCT-15 [12] = assay: Growth inhibition of human HCT15 cells assessed as cell growth at 10^-4 M by sulforhodamine B assay; conditions: read-out: Activity
# HCT-116 [13] = assay: Growth inhibition of human HCT116 cells assessed as cell growth at 10^-7 M by sulforhodamine B assay; conditions: read-out: Activity
# COLO 205 [14] = assay: Growth inhibition of human COLO205 cells by sulforhodamine B assay
# [15] = Growth inhibition of human Hs 578T cells assessed as cell growth at 10^-6 M by sulforhodamine B assay; conditions: read-out: Activity
# UACC-62 = assay: Growth inhibition of human UACC62 cells assessed as cell growth at 10^-7 M by sulforhodamine B assay; conditions: read-out: Activity
# NCI-H226 = assay: Growth inhibition of human NCI-H226 cells assessed as cell growth at 10^-4 M by sulforhodamine B assay; conditions: read-out: Activity
# SK-OV-3 [16] = assay: Growth inhibition of human SKOV3 cells assessed as cell growth at 10^-6 M by sulforhodamine B assay; conditions: read-out: Activity
# SF-539 = assay: Growth inhibition of human SF539 cells assessed as cell growth at 10^-7 M by sulforhodamine B assay; conditions: read-out: Activity
# M14 = assay: Growth inhibition of human M14 cells assessed as cell growth at 10^-4 M by sulforhodamine B assay; conditions: read-out: Activity
# NCI-H522 = assay: Growth inhibition of human NCI-H522 cells assessed as cell growth at 10^-7 M by sulforhodamine B assay; conditions: read-out: Activity
# A498 [17] = assay: Growth inhibition of human A498 cells assessed as cell growth at 10^-4 M by sulforhodamine B assay; conditions: read-out: Activity
# LOX IMVI = assay: Growth inhibition of human LOXIMVI cells assessed as cell growth at 10^-7 M by sulforhodamine B assay; conditions: read-out: Activity
# KM12 = assay: Growth inhibition of human KM12 cells assessed as cell growth at 10^-7 M by sulforhodamine B assay; conditions: read-out: Activity
# [18] = read-out: LC50 (the source's name)
# [19] = read-out: pLC50 (the source's name) (converted)
smiles,measurement,setting,value
CC(C)=CC(=O)O[C@@H]1CC(C)(C)C[C@H]2C3=CC[C@@H]4[C@@]5(C)CCC(=O)C(C)(C)[C@@H]5CC[C@@]4(C)[C@]3(C)CC[C@@]12C(=O)O,growth at 0.01 µM,COLO 205 [1],106%
same,growth at 1 µM,UACC-257 [2],83%
same,growth at 100 µM,CCRF-CEM [3],-14%
same,GI50,K562; read-out: GI50,3.47 µM
same,LC50,K562; read-out: LC50,> 100 µM
same,TGI,K562; read-out: TGI,> 100 µM
same,GI50,K562; read-out: pGI50 (converted),3.47 µM
same,LC50,K562; read-out: pLC50 (converted),> 100 µM
same,TGI,K562; read-out: pTGI (converted),> 100 µM
same,growth at 0.1 µM,A498 [4],80%
same,growth at 100 µM,BT-549,-47%
same,growth at 0.01 µM,SF-268,96%
same,growth at 1 µM,TK-10,98%
same,GI50,SK-OV-3 [5]; read-out: GI50,16.6 µM
same,CC50,SK-OV-3 [5]; [18],> 100 µM
same,TGI,SK-OV-3 [5]; read-out: TGI,> 100 µM
same,GI50,SK-OV-3 [5]; read-out: pGI50 (converted),16.6 µM
same,CC50,SK-OV-3 [5]; [19],> 100 µM
same,TGI,SK-OV-3 [5]; read-out: pTGI (converted),> 100 µM
same,growth at 0.1 µM,T47D,96%
same,growth at 0.01 µM,A549,93%
same,growth at 0.1 µM,COLO 205 [6],103%
same,growth at 1 µM,OVCAR-5,86%
same,growth at 100 µM,SK-OV-3 [7],15%
same,growth at 0.1 µM,HCT-15 [8],86%
same,growth at 1 µM,MCF7,84%
same,GI50,CCRF-CEM [9]; read-out: GI50,2.14 µM
same,CC50,CCRF-CEM [9]; [18],> 100 µM
same,TGI,CCRF-CEM [9]; read-out: TGI,22.1 µM
same,GI50,CCRF-CEM [9]; read-out: pGI50 (converted),2.14 µM
same,CC50,CCRF-CEM [9]; [19],> 100 µM
same,TGI,CCRF-CEM [9]; read-out: pTGI (converted),22.4 µM
same,growth at 0.1 µM,NCI-H23,90%
same,growth at 100 µM,UACC-257 [10],-15%
same,growth at 1 µM,SF-295,63%
same,growth at 100 µM,HCT-116 [11],-6%
same,growth at 100 µM,HCT-15 [12],-34%
same,growth at 0.1 µM,HCT-116 [13],98%
same,GI50,COLO 205 [14]; read-out: GI50,3.61 µM
same,LC50,COLO 205 [14]; read-out: LC50,49.1 µM
same,TGI,COLO 205 [14]; read-out: TGI,12.3 µM
same,GI50,COLO 205 [14]; read-out: pGI50 (converted),3.63 µM
same,LC50,COLO 205 [14]; read-out: pLC50 (converted),49 µM
same,TGI,COLO 205 [14]; read-out: pTGI (converted),12.3 µM
same,growth at 1 µM,[15],86%
same,growth at 0.1 µM,UACC-62,97%
same,growth at 100 µM,NCI-H226,12%
same,growth at 1 µM,SK-OV-3 [16],108%
same,growth at 0.1 µM,SF-539,91%
same,growth at 100 µM,M14,-62%
same,growth at 0.1 µM,NCI-H522,92%
same,growth at 100 µM,A498 [17],-44%
same,growth at 0.1 µM,LOX IMVI,92%
same,growth at 0.1 µM,KM12,85%
C/C=C(/C)C(=O)O[C@@H]1CC(C)(C)C[C@H]2C3=CC[C@@H]4[C@@]5(C)CCC(=O)C(C)(C)[C@@H]5CC[C@@]4(C)[C@]3(C)CC[C@@]12C(=O)O [LANTADENE A],growth at 0.01 µM,COLO 205 [1],106%
same,growth at 1 µM,UACC-257 [2],91%
same,growth at 100 µM,CCRF-CEM [3],9%
same,GI50,K562; read-out: GI50,4.72 µM
same,LC50,K562; read-out: LC50,> 100 µM
same,TGI,K562; read-out: TGI,> 100 µM
same,GI50,K562; read-out: pGI50 (converted),4.68 µM
same,LC50,K562; read-out: pLC50 (converted),> 100 µM
same,TGI,K562; read-out: pTGI (converted),> 100 µM
same,growth at 0.1 µM,A498 [4],86%
same,growth at 100 µM,BT-549,18%
same,growth at 0.01 µM,SF-268,100%
same,growth at 1 µM,TK-10,101%
same,GI50,SK-OV-3 [5]; read-out: GI50,18 µM
same,CC50,SK-OV-3 [5]; [18],> 100 µM
same,TGI,SK-OV-3 [5]; read-out: TGI,> 100 µM
same,GI50,SK-OV-3 [5]; read-out: pGI50 (converted),18.2 µM
same,CC50,SK-OV-3 [5]; [19],> 100 µM
same,TGI,SK-OV-3 [5]; read-out: pTGI (converted),> 100 µM
same,growth at 0.1 µM,T47D,99%
same,growth at 0.01 µM,A549,94%
same,growth at 0.1 µM,COLO 205 [6],110%
same,growth at 1 µM,OVCAR-5,98%
same,growth at 100 µM,SK-OV-3 [7],32%
same,growth at 0.1 µM,HCT-15 [8],106%
same,growth at 1 µM,MCF7,87%
same,GI50,CCRF-CEM [9]; read-out: GI50,3.48 µM
same,CC50,CCRF-CEM [9]; [18],> 100 µM
same,TGI,CCRF-CEM [9]; read-out: TGI,> 100 µM
same,GI50,CCRF-CEM [9]; read-out: pGI50 (converted),3.47 µM
same,CC50,CCRF-CEM [9]; [19],> 100 µM
same,TGI,CCRF-CEM [9]; read-out: pTGI (converted),> 100 µM
same,growth at 0.1 µM,NCI-H23,99%
same,growth at 100 µM,UACC-257 [10],21%
same,growth at 1 µM,SF-295,88%
same,growth at 100 µM,HCT-116 [11],11%
same,growth at 100 µM,HCT-15 [12],9%
same,growth at 0.1 µM,HCT-116 [13],90%
same,GI50,COLO 205 [14]; read-out: GI50,2.64 µM
same,LC50,COLO 205 [14]; read-out: LC50,89.7 µM
same,TGI,COLO 205 [14]; read-out: TGI,6.8 µM
same,GI50,COLO 205 [14]; read-out: pGI50 (converted),2.63 µM
same,LC50,COLO 205 [14]; read-out: pLC50 (converted),89.1 µM
same,TGI,COLO 205 [14]; read-out: pTGI (converted),6.76 µM
same,growth at 1 µM,[15],91%
same,growth at 0.1 µM,UACC-62,85%
same,growth at 100 µM,NCI-H226,20%
same,growth at 1 µM,SK-OV-3 [16],103%
same,growth at 0.1 µM,SF-539,103%
same,growth at 100 µM,M14,23%
same,growth at 0.1 µM,NCI-H522,97%
same,growth at 100 µM,A498 [17],-20%
same,growth at 0.1 µM,LOX IMVI,95%
same,growth at 0.1 µM,KM12,102%
